Read-outs that look alike come from different tables or passages of the source.
What was measured:
κ opioid receptor [1] = target: T1, κ opioid receptor (Homo sapiens (Human), UniProt P41145); test: κ-opioid receptor radioligand dose-displacement binding assay ([3H]-U69,593); conditions: binding affinity
Procedure: Membranes from HEK-293 cells, CHO or U-2 OS cells expressing the recombinant human κ opioid receptor (κ) were prepared by lysing cells in ice cold hypotonic buffer (2.5 mM MgCl2, 50 mM HEPES, pH 7.4) (10 mL/10 cm dish) followed by homogenization with a tissue grinder/Teflon pestle. Membranes were collected by centrifugation at 30,000×g for 15 min at 4° C. and pellets were resuspended in hypotonic buffer to a final concentration of 1-3 mg/mL. Protein concentrations were determined using the BioRad protein assay reagent with bovine serum albumen as standard. Aliquots of κ receptor membranes were stored at −80° C.
Radioligand dose displacement assays used 0.4 nM [^3H]-U69,593 (GE Healthcare, Piscataway, N.J.; 40 Ci/mmole) with 15 μg membrane protein (recombinant κ opioid receptor expressed in HEK 293 cells; in-house prep) in a final volume of 200 μl binding buffer (5% DMSO, 50 mM Trizma base, pH 7.4). Non-specific binding was determined in the presence of 10 μM unlabeled naloxone or U69,593. All reactions were performed in 96-well polypropylene plates for 1 hour at a temperature of about 25° C. Binding reactions were terminated by rapid filtration onto 96-well Unifilter GF/C filter plates (Perkin Elmer, Shelton, Conn.) presoaked in 0.5% polyethylenimine (Sigma). Harvesting was performed using a 96-well tissue harvester (Perkin Elmer, Shelton, Conn.) followed by five filtration washes with 200 μl ice-cold binding buffer. Filter plates were subsequently dried at 50° C. for 1-2 hours. Fifty μl/well scintillation cocktail (Perkin Elmer, Shelton, Conn.) was added and plates were counted in a Packard Top-Count for 1 min/well.
(§1) In TABLE 1, binding affinity of certain Compounds of the Invention to the μ- and κ-opioid receptors was determined as described above.

μ-opioid receptor [2] = target: T2, μ-opioid receptor (Homo sapiens (Human), UniProt P35372); test: μ-opioid receptor radioligand dose-displacement binding assay ([3H]-diprenorphine); conditions: binding affinity
Procedure: Radioligand dose-displacement binding assays for μ-opioid receptors used 0.3 nM [^3H]-diprenorphine (Perkin Elmer, Shelton, Conn.), with […] membrane protein/well in a final volume of 500 μl binding buffer (10 mM MgCl2, 1 mM EDTA, 5% DMSO, 50 mM HEPES, pH 7.4). Reactions were carried out in the absence or presence of increasing concentrations of unlabeled naloxone. All reactions were conducted in 96-deep well polypropylene plates for 2 hours at room temperature. Binding reactions were terminated by rapid filtration onto 96-well Unifilter GF/C filter plates (Perkin Elmer, Shelton, Conn.), presoaked in 0.5% polyethylenimine using a 96-well tissue harvester (Perkin Elmer, Shelton, Conn.) followed by performing three filtration washes with 500 μl of ice-cold binding buffer. Filter plates were subsequently dried at 50° C. for 2-3 hours. BetaScint scintillation cocktail (Perkin Elmer, Shelton, Conn.) was added (50 μl/well), and plates were counted using a Packard Top-Count for 1 min/well. The data were analyzed using the one-site competition curve fitting functions in GraphPad PRISM™ v. 3.0 or higher (San Diego, Calif.), or an in-house function for one-site competition curve-fitting.
as §1

κ opioid receptor [3] = target: T1, κ opioid receptor; test: κ-opioid receptor [35S]GTPγS functional assay; format: biochemical; conditions: for EC50: GTPγS functional assay using U-2 OS cells; for Emax: maximal effect relative to U69,593, U-2 OS cells
Procedure: Functional [^35S]GTPγS binding assays were conducted as follows. κ opioid receptor membrane solution was prepared by sequentially adding final concentrations of 0.026 μg/μl κ membrane protein (in-house), 10 μg/mL saponin, 3 μM GDP and 0.20 nM [^35S]GTPγS to binding buffer (100 mM NaCl, 10 mM MgCl2, 20 mM HEPES, pH 7.4) on ice. The prepared membrane solution (190 μl/well) was transferred to 96-shallow well polypropylene plates containing 10 μl of 20× concentrated stock solutions of agonist prepared in DMSO. Plates were incubated for 30 min at a temperature of about 25° C. with shaking. Reactions were terminated by rapid filtration onto 96-well Unifilter GF/B filter plates (Perkin Elmer, Shelton, Conn.) using a 96-well tissue harvester (Packard) and followed by three filtration washes with 200 μl ice-cold binding buffer (10 mM NaH2PO4, 10 mM Na2HPO4, pH 7.4). Filter plates were subsequently dried at 50° C. for 2-3 hours. Fifty μl/well scintillation cocktail (Perkin Elmer, Shelton, Conn.) was added and plates were counted in a Packard Top-Count for 1 min/well.
κ GTP EC50 is the concentration of a compound providing 50% of the maximal response for the compound at a κ receptor.
κ GTP Emax (%) is the maximal effect elicited by a compound relative to the effect elicited by U69,593.
(§2) In TABLE 2, activity response of certain Compounds of the Invention to the μ- and κ-opioid receptors was determined as described above for functional assays using U-2 OS cells.

μ-opioid receptor [4] = target: T2, μ-opioid receptor; test: μ-opioid receptor [35S]GTPγS functional assay; format: biochemical; conditions: for EC50: GTPγS functional assay using U-2 OS cells; for Emax: maximal effect relative to DAMGO, U-2 OS cells
Procedure: [^35S]GTPγS functional assays were conducted using freshly thawed p-receptor membranes prepared in-house from a cell line expressing recombinant μ opioid receptor in a HEK-293, CHO or U-2 OS cell background, or purchased from a commercial source (Perkin Elmer, Shelton. Conn.; or DiscovRx, Fremont, Calif.). Assay reactions were prepared by sequentially adding the following reagents to binding buffer (100 mM NaCl, 10 mM MgCl2, 20 mM HEPES, pH 7.4) on ice (final concentrations indicated): membrane protein ([…]), saponin ([…]), GDP ([…]) and [^35S]GTPγS (0.20 nM; Perkin Elmer, Shelton, Conn.). The prepared membrane solution (190 μl/well) was transferred to 96-shallow well polypropylene plates containing 10 μl of 20× concentrated stock solutions of the agonist [D-Ala^2, N-methyl-Phe^4 Gly-ol^5]-enkephalin (DAMGO) prepared in dimethyl sulfoxide (DMSO). Plates were incubated for 30 min at about 25° C. with shaking. Reactions were terminated by rapid filtration onto 96-well Unifilter GF/B filter plates (Perkin Elmer, Shelton, Conn.) using a 96-well tissue harvester (Perkin Elmer, Shelton, Conn.) followed by three filtration washes with 200 μl of ice-cold wash buffer (10 mM NaH2PO4, 10 mM Na2HPO4, pH 7.4). Filter plates were subsequently dried at 50° C. for 2-3 hours. BetaScint scintillation cocktail (Perkin Elmer, Shelton, Conn.) was added (50 μl/well) and plates were counted using a Packard Top-Count for 1 min/well. Data were analyzed using the sigmoidal dose-response curve fitting functions in GraphPad PRISM v. 3.0, or an in-house function for non-linear, sigmoidal dose-response curve-fitting.
μ GTP EC50 is the concentration of a compound providing 50% of the maximal response for the compound at a […] receptor.
μ GTP Emax (%) is the maximal effect elicited by a compound relative to the effect elicited by DAMGO, a standard μ agonist. Generally, the μ GTP Emax (%) value measures the efficacy of a compound to treat or prevent pain or other Conditions.
as §2

[5] = read-out: Opioid Receptor Ki (nM) μ

**Q.** For `COc1ccc2c(c1)[C@]13CCN(CC4CC4)C[C@]1(CC[C@@]1(C3)NC(=O)NC1=O)C2` [Compound 2, (3S,4aR,9,aR)-11-(cyclopropylmethyl)-6-methoxy-1,2,4,9-tetrahydrospiro[4a,9a-(ethanoiminomethano)fluorene-3,4′-imidazolidine]-2′,5′-dione], which Ki (κ opioid receptor [1]) is on record?
**A.** 4760 ± 1110 nM

**Q.** What about the Ki (μ-opioid receptor [2]; [5]) of the same compound?
**A.** 6250 ± 874 nM

**Q.** How did the Ki (κ opioid receptor [1]) turn out when `COc1ccc2c(c1)[C@]13CCN(CC4CC4)C[C@]1(CC[C@]1(C3)NC(=O)NC1=O)C2` [Compound 3] was run?
**A.** 8410 ± 650 nM

**Q.** What about the Ki (μ-opioid receptor [2]; read-out: Opioid Receptor Ki μ) of the same compound?
**A.** > 20000 nM

**Q.** `COC(=O)c1cc2c([nH]c1=O)C[C@@]13CCN(CC4CC4)C[C@@]1(Cc1ccc(OC)cc13)C2` [Compound 5, (5aS,10bR)-methyl 14-(cyclopropylmethyl)-9-methoxy-2-oxo-2,5,6,11-tetrahydro-1H-10b,5a-(ethanoiminomethano)indeno[2,1-g]quinoline-3-carboxylate] was tested. Which Ki (κ opioid receptor [1]) did it give?
**A.** 3600 ± 882 nM

**Q.** What about the Ki (μ-opioid receptor [2]; [5]) of the same compound?
**A.** 9550 ± 1870 nM

**Q.** Which results are given for `COc1ccc2c(c1)[C@]13CCN(CC4CC4)C[C@@]1(C2)Cc1cc(C(N)=O)c(=O)[nH]c1C3` [Compound 6, (5aS,10bR)-14-(cyclopropylmethyl)-9-methoxy-2-oxo-2,5,6,11-tetrahydro-1H-10b,5a-(ethanoiminomethano)indeno[2,1-g]quinoline-3-carboxamide]?
**A.** Ki (κ opioid receptor [1]): 4280 ± 1090 nM; Ki (μ-opioid receptor [2]; [5]): 15600 nM

**Q.** `NC(=O)c1cc2c([nH]c1=O)C[C@@]13CCN(CC4CC4)C[C@@]1(Cc1ccc(O)cc13)C2` [Compound 7, (5aS,10bR)-14-(cyclopropylmethyl)-9-hydroxy-2-oxo-2,5,6,11-tetrabydro-1H-10b,5a-(ethanoiminomethano)indeno[2,1-g]quinoline-3-carboxamide] was tested. Which EC50 (κ opioid receptor [3]) did it give?
**A.** 570 ± 85.4 nM

**Q.** And the Emax (κ opioid receptor [3])?
**A.** 103 ± 5.21%

**Q.** What about the EC50 (μ-opioid receptor [4]) of the same compound?
**A.** 412 ± 66.4 nM

**Q.** And the Emax (μ-opioid receptor [4])?
**A.** 19.3 ± 3.18%

**Q.** What about the Ki (κ opioid receptor [1]) of the same compound?
**A.** 148 ± 39.8 nM

**Q.** What about the Ki (μ-opioid receptor [2]; [5]) of the same compound?
**A.** 770 ± 102 nM

**Q.** What does the source list for `O=C1NC(=O)[C@@]2(CC[C@@]34Cc5ccc(O)cc5[C@@]3(CCN(CC3CC3)C4)C2)N1` [Compound 8, (3S,4aR,9aR)-11-(cyclopropylmethyl)-6-hydroxy-1,2,4,9-tetrahydrospiro[4a,9a-(ethanoiminomethano)fluorene-3,4′-imidazolidine]-2′,5′-dione]?
**A.** EC50 (κ opioid receptor [3]): 384 ± 36.9 nM; Emax (κ opioid receptor [3]): 119 ± 4.41%; EC50 (μ-opioid receptor [4]): 414 ± 62.8 nM; Emax (μ-opioid receptor [4]): 86.7 ± 1.67%; Ki (κ opioid receptor [1]): 72.5 ± 18.3 nM; Ki (μ-opioid receptor [2]; [5]): 472 ± 93 nM

**Q.** Which EC50 (κ opioid receptor [3]) does the source give for `O=C1NC(=O)[C@]2(CC[C@@]34Cc5ccc(O)cc5[C@@]3(CCN(CC3CC3)C4)C2)N1` [Compound 9, (3R,4aR,9aR)-11-(cyclopropylmethyl)-6-hydroxy-1,2,4,9-tetrahydrospiro[4a,9a-(ethanoiminomethano)fluorene-3,4′-imidazolidine]-2′,5′-dione] here?
**A.** 318.8 ± 1.38 nM

**Q.** And the Emax (κ opioid receptor [3])?
**A.** 109 ± 7.09%

**Q.** What about the EC50 (μ-opioid receptor [4]) of the same compound?
**A.** 309 ± 36.3 nM

**Q.** What about the Emax (μ-opioid receptor [4]) of the same compound?
**A.** 94 ± 3.06%

**Q.** And the Ki (κ opioid receptor [1])?
**A.** 148 ± 25.2 nM

**Q.** What about the Ki (μ-opioid receptor [2]; [5]) of the same compound?
**A.** 676 ± 74.1 nM
